Measurements published in patent US20130012432A1, “Peptides for Treatment of Obesity” (Novo Nordisk A/S, priority 2010, published 2013).
Values after ≈ are worked out from the molar mass of the structure shown. Positions of bridges follow the written chain, without caps; N, C: chain ends. Non-standard residues stand in square brackets, D forms with d. Residues, ends and D or L forms follow the SMILES beside them. Groups on a side chain read outwards from the residue. *: point of attachment. Palmitoyl(16-(5-tetrazolyl)) = O=C(CCCCCCCCCCCCCCCc1nnn[nH]1)*; Lys(CH2CO2H)2 = N[C@@H](CCCCN(CC(=O)O)CC(=O)O)C(=O)O; C17 diacid = O=C(O)CCCCCCCCCCCCCCCC(=O)*; C16 diacid = O=C(O)CCCCCCCCCCCCCCC(=O)*; Hyp = O=C(O)[C@@H]1C[C@@H](O)CN1; hCys = N[C@@H](CCS)C(=O)O; Orn = NCCC[C@H](N)C(=O)O; Dab = NCC[C@H](N)C(=O)O; Dap = NC[C@H](N)C(=O)O; AEEA = NCCOCCOCC(=O)O

Key:
[1] = physchem
Description: From a stock solution in vehicle, either H2O or 10 mM phosphate, containing 1 mg (as weighed) compound per ml, 8-11 aliquots are withdrawn and pH-adjusted individually with HCl/NaOH, to cover the whole pH range.

[2] = target: human MC4 receptor (Homo sapiens, UniProt P32245); experiment: biochemical
Description: Assay (V)—Melanocortin Receptor 4 (MC4) Binding Assay
In Vitro ^125NDP-α-MSH Binding to Recombinant BHK Cells Expressing Human MC4 Receptor (Filtration Assay).
The assay was performed in 5 ml minisorb vials (Sarstedt No. 55.526) or in 96-well filter-plates (Millipore MADVN 6550), and using BHK cells expressing the human MC4 receptor using BHK cells stably expressing the human MC4 receptor. The membranes were prepared from frozen or fresh cells that were homogenized in 20 mM HEPES pH 7.1, 5 mM MgCl2 and 1 mg/ml bacitracin and centrifuged at 15000 rpm at 4° C., 10 min in a Sorvall RC 5B plus, SS-34 rotor. The supernatant was discarded, and the pellets were re-suspended in buffer, homogenized and centrifuged two more times. The final pellets were resuspended in the buffer mentioned above, and the protein concentration was measured and adjusted with buffer to 14 to 17 mg/ml and the membrane preparation were kept at −80° C. until assay. The assay was run directly on a dilution of this cell membrane suspension, without any further preparation. The BHK cell membranes are kept at −80° C. until assay, and the assay is run directly on a dilution of this cell membrane suspension, without further preparation. The suspension is diluted to give maximally 10% specific binding, i.e. to approx. 50-100 fold dilution. The assay was performed in a total volume of 200 μl: 50 μl of cell suspension, 50 μl of ^125NDP-α-MSH (≈79 pM in final concentration), 50 μl of test compound and 50 μl binding buffer (pH 7) mixed and incubated for 2 h at 25° C. [binding buffer: 25 mM HEPES, pH 7.0, 1 mM CaCl2, 1 mM MgSO4, 1 mM EGTA, 0.02% Bacitracin, 0.005% Tween™ 20 and 0.1% HSA or, alternatively, 0.1% ovalbumin (Sigma; catalogue No. A-5503)]. Test compounds were dissolved in DMSO and diluted in binding buffer. Radiolabelled ligand and membranes were diluted in binding buffer. The incubation was stopped by dilution with 2×100 μl ice-cold 0.9% NaCl. The radioactivity retained on the filters was counted using a Cobra II auto gamma counter.
The data were analysed by non-linear regression analysis of binding curves, using the Windows™ program GraphPad™ Prism (GraphPad Software, USA).

[3] = target: MC1 receptor (Homo sapiens, UniProt Q01726); experiment: biochemical
How it was run: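 Compounds competed against 125I-NDP-α-MSH (22 pM final) for binding to stably MC1-expressing BHK cell membranes, 30 °C for 90 min in HEPES pH 7.4 buffer with 0.1% HSA or ovalbumin. Bound ligand collected by filtration and counted; binding curves analysed by non-linear regression.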

human MC4 receptor, sequence (P32245 whole entry): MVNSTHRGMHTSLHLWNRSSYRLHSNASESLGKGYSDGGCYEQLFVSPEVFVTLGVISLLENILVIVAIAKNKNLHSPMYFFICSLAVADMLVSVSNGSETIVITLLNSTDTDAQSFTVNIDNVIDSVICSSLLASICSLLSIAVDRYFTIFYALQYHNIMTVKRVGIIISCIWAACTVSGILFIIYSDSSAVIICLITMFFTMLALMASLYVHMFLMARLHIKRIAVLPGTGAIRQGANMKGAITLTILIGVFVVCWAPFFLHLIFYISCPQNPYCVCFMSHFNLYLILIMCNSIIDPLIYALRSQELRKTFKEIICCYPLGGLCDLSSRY
MC1 receptor, sequence (Q01726 whole entry): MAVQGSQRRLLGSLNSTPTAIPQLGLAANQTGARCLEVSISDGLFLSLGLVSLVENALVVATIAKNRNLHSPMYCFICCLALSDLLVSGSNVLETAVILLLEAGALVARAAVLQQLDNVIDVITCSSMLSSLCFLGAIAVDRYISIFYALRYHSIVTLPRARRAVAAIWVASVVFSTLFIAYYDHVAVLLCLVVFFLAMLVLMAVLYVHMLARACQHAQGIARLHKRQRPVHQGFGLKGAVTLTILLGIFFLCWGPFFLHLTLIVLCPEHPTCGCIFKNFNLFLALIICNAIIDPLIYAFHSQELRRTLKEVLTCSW

Row | SMILES | solubility ([1]; pH 6.1, Solubility Conc.) | solubility ([1]; pH 6.7, Solubility Conc.) | solubility ([1]; pH 7.1, Solubility Conc.) | solubility ([1]; pH 7.3, Solubility Conc.) | solubility ([1]; pH 7.7, Solubility Conc.) | solubility ([1]; pH 7.8, Solubility Conc.) | Ki [2] | Ki [3] | solubility ([1]; pH 6.9, Solubility Conc.) | solubility ([1]; pH 7.2, Solubility Conc.) | solubility ([1]; pH 7.4, Solubility Conc.) | solubility ([1]; pH 7.5, Solubility Conc.) | solubility ([1]; pH 7.6, Solubility Conc.) | solubility ([1]; pH 8.1, Solubility Conc.) | solubility ([1]; pH 6.6, Solubility Conc.) | solubility ([1]; pH 7.9, Solubility Conc.) | solubility ([1]; pH 8, Solubility Conc.) | further results
1 | CC(=O)N[C@H]1CCSSC[C@@H](C(=O)N2CCC[C@H]2C(=O)N2CCC[C@H]2C(=O)N[C@@H](CCCCN)C(=O)N[C@@H](CCC(=O)O)C(=O)N[C@@H](CCCCN(CC(=O)O)CC(=O)O)C(=O)N[C@@H](CCCCNC(=O)COCCOCCNC(=O)CCCCCCCCCCCCCCC(=O)O)C(N)=O)NC(=O)[C@H](Cc2c[nH]c3ccccc23)NC(=O)[C@H](CCCNC(=N)N)NC(=O)[C@@H](Cc2ccccc2)NC(=O)[C@H](Cc2c[nH]cn2)NC1=O [Example 5, Ac-c[homoCys-His-D-Phe-Arg-Trp-Cys]-Pro-Pro-Lys-Glu-Lys(biscarboxymethyl)-Lys({2-[2-(15-carboxypentadecanoylamino)ethoxy]ethoxy}acetyl)-NH2] (Ac-[hCys]H[dF]RWCPPKE[Lys(CH2CO2H)2]K([AEEA-C16 diacid])-NH2; disulfide 1-6) | 200 µM (≈ 428 µg/mL) | 320 µM (≈ 685 µg/mL) | 489 µM (≈ 1050 µg/mL) | 496 µM (≈ 1060 µg/mL) | 498 µM (≈ 1070 µg/mL) | 509 µM (≈ 1090 µg/mL) | 17 nM | > 10000 nM | – | – | – | – | – | – | – | – | – | solubility ([1]; pH 3.8, Solubility Conc.): 486 µM (≈ 1040 µg/mL); solubility ([1]; pH 4.6, Solubility Conc.): 452 µM (≈ 968 µg/mL); solubility ([1]; pH 4.9, Solubility Conc.): 233 µM (≈ 499 µg/mL)
2 | CC(=O)N[C@H]1CCC(=O)NC[C@@H](C(=O)N2CCC[C@H]2C(=O)N2CCC[C@H]2C(=O)N[C@@H](CCCNC(=N)N)C(=O)N[C@@H](CC(=O)O)C(=O)N[C@@H](CCCCN(CC(=O)O)CC(=O)O)C(=O)N[C@@H](CCCCNC(=O)COCCOCCNC(=O)CCCCCCCCCCCCCCCc2nnn[nH]2)C(N)=O)NC(=O)[C@H](Cc2c[nH]c3ccccc23)NC(=O)[C@H](CCCNC(=N)N)NC(=O)[C@@H](Cc2ccccc2)NC(=O)[C@H](Cc2c[nH]cn2)NC1=O [Example 6, Ac-c[Glu-His-D-Phe-Arg-Trp-Dap]-Pro-Pro-Arg-Asp-Lys(biscarboxymethyl)-Lys[(2-{2-[16-(tetrazol-5-yl)hexadecanoylamino]ethoxy}ethoxy)acetyl]-NH2] (Ac-EH[dF]RW[Dap]PPRD[Lys(CH2CO2H)2]K([AEEA-Palmitoyl(16-(5-tetrazolyl))])-NH2; lactam 1-6) | – | – | – | – | – | 254 µM (≈ 552 µg/mL) | 13 nM | > 10000 nM | 44 µM (≈ 95.6 µg/mL) | 82 µM (≈ 178 µg/mL) | 208 µM (≈ 452 µg/mL) | 270 µM (≈ 587 µg/mL) | 290 µM (≈ 630 µg/mL) | 280 µM (≈ 608 µg/mL) | – | – | – | solubility ([1]; pH 5.9, Solubility Conc.): 23 µM (≈ 50 µg/mL); solubility ([1]; pH 6.3, Solubility Conc.): 24 µM (≈ 52.1 µg/mL)
3 | CC(=O)N[C@H]1CCNC(=O)CC[C@@H](C(=O)N2CCC[C@H]2C(=O)N2CCC[C@H]2C(=O)N[C@@H](CCCNC(=N)N)C(=O)N[C@@H](CC(=O)O)C(=O)N[C@@H](CCCCN(CC(=O)O)CC(=O)O)C(=O)N[C@@H](CCCCNC(=O)COCCOCCNC(=O)CCCCCCCCCCCCCCCc2nnn[nH]2)C(N)=O)NC(=O)[C@H](Cc2c[nH]c3ccccc23)NC(=O)[C@H](CCCNC(=N)N)NC(=O)[C@@H](Cc2ccccc2)NC(=O)[C@H](Cc2c[nH]cn2)NC1=O [Example 23, Ac-c[Dab-His-D-Phe-Arg-Trp-Glu]-Pro-Pro-Arg-Asp-Lys(biscarboxymethyl)-Lys[(2-{2-[16-(tetrazol-5-yl)hexadecanoylamino]ethoxy}ethoxy)acetyl]-NH2] (Ac-[Dab]H[dF]RWEPPRD[Lys(CH2CO2H)2]K([AEEA-Palmitoyl(16-(5-tetrazolyl))])-NH2; lactam 1-6) | 34 µM (≈ 74.3 µg/mL) | – | – | – | 295 µM (≈ 645 µg/mL) | – | 107 nM | > 10000 nM | 45 µM (≈ 98.4 µg/mL) | 76 µM (≈ 166 µg/mL) | 145 µM (≈ 317 µg/mL) | – | 229 µM (≈ 501 µg/mL) | – | 38 µM (≈ 83.1 µg/mL) | 300 µM (≈ 656 µg/mL) | – | solubility ([1]; pH 4.7, Solubility Conc.): 73 µM (≈ 160 µg/mL)
4 | CC(=O)N[C@H]1CCC(=O)NC[C@@H](C(=O)N2C[C@H](O)C[C@H]2C(=O)N2C[C@H](O)C[C@H]2C(=O)N[C@@H](CCCNC(=N)N)C(=O)N[C@@H](CC(=O)O)C(=O)N[C@@H](CCCCN(CC(=O)O)CC(=O)O)C(=O)N[C@@H](CCCCNC(=O)COCCOCCNC(=O)CCCCCCCCCCCCCCCc2nnn[nH]2)C(N)=O)NC(=O)[C@H](Cc2c[nH]c3ccccc23)NC(=O)[C@H](CCCNC(=N)N)NC(=O)[C@@H](Cc2ccccc2)NC(=O)[C@H](Cc2c[nH]cn2)NC1=O [Example 31, Ac-c[Glu-His-D-Phe-Arg-Trp-Dap]-Hyp-Hyp-Arg-Asp-Lys(biscarboxymethyl)-Lys[(2-{2-[16-(tetrazol-5-yl)hexadecanoylamino]ethoxy}ethoxy)acetyl]-NH2] (Ac-EH[dF]RW[Dap][Hyp][Hyp]RD[Lys(CH2CO2H)2]K([AEEA-Palmitoyl(16-(5-tetrazolyl))])-NH2; lactam 1-6) | – | – | – | 96 µM (≈ 212 µg/mL) | 495 µM (≈ 1090 µg/mL) | – | 17 nM | > 10000 nM | 61 µM (≈ 134 µg/mL) | – | 228 µM (≈ 503 µg/mL) | 440 µM (≈ 970 µg/mL) | – | 472 µM (≈ 1040 µg/mL) | 36 µM (≈ 79.4 µg/mL) | 529 µM (≈ 1170 µg/mL) | – | –
5 | CC(=O)N[C@H]1CCCNC(=O)CC[C@@H](C(=O)N2CCC[C@H]2C(=O)N[C@@H](CO)C(=O)N[C@@H](CO)C(=O)N[C@@H](CO)C(=O)N[C@@H](CCC(=O)O)C(=O)N[C@@H](CCC(=O)O)C(=O)N[C@@H](CO)C(=O)N[C@@H](CO)C(=O)N[C@@H](CCCCNC(=O)COCCOCCNC(=O)CCCCCCCCCCCCCCCC(=O)O)C(N)=O)NC(=O)[C@H](Cc2c[nH]c3ccccc23)NC(=O)[C@H](CCCNC(=N)N)NC(=O)[C@@H](Cc2ccccc2)NC(=O)[C@H](Cc2c[nH]cn2)NC1=O [Example 39] (Ac-[Orn]H[dF]RWEPSSSEESSK([AEEA-C17 diacid])-NH2; lactam 1-6) | 272 µM (≈ 614 µg/mL) | – | 419 µM (≈ 946 µg/mL) | – | 426 µM (≈ 962 µg/mL) | – | 25 nM | > 10000 nM | 397 µM (≈ 896 µg/mL) | – | 448 µM (≈ 1010 µg/mL) | – | – | – | 403 µM (≈ 910 µg/mL) | – | 397 µM (≈ 896 µg/mL) | solubility ([1]; pH 8.3, Solubility Conc.): 445 µM (≈ 1000 µg/mL)
6 | CC(=O)N[C@H]1CCCCNC(=O)C[C@@H](C(=O)N2CCC[C@H]2C(=O)N2CCC[C@H]2C(=O)N[C@@H](Cc2c[nH]cn2)C(=O)N[C@@H](CCC(=O)O)C(=O)N[C@@H](CCCCN(CC(=O)O)CC(=O)O)C(=O)N[C@@H](CCCCNC(=O)COCCOCCNC(=O)CCCCCCCCCCCCCCCC(=O)O)C(N)=O)NC(=O)[C@H](Cc2c[nH]c3ccccc23)NC(=O)[C@H](CCCNC(=N)N)NC(=O)[C@@H](Cc2ccccc2)NC(=O)[C@H](Cc2c[nH]cn2)NC1=O [Example 44, Ac-c[Lys-His-D-Phe-Arg-Trp-Asp]-Pro-Pro-His-Glu-Lys(biscarboxymethyl)-Lys({2-[2-(16-carboxyhexadecanoylamino)ethoxy]ethoxy}acetyl)-NH2] (Ac-KH[dF]RWDPPHE[Lys(CH2CO2H)2]K([AEEA-C17 diacid])-NH2; lactam 1-6) | – | 364 µM (≈ 790 µg/mL) | – | 412 µM (≈ 895 µg/mL) | – | 429 µM (≈ 932 µg/mL) | 17 nM | > 10000 nM | – | – | – | – | 407 µM (≈ 884 µg/mL) | – | – | – | 408 µM (≈ 886 µg/mL) | solubility ([1]; pH 6.5, Solubility Conc.): 227 µM (≈ 493 µg/mL); solubility ([1]; pH 6.8, Solubility Conc.): 407 µM (≈ 884 µg/mL); solubility ([1]; pH 7, Solubility Conc.): 430 µM (≈ 934 µg/mL); solubility ([1]; pH 8.2, Solubility Conc.): 430 µM (≈ 934 µg/mL)
